Measurements from US6737383B1, “Herbicidal oxadiazolidines” (priority 1999, dated 2004).

How the values were obtained:
corn = test: Test B pre/postemergence corn; type: in vivo, Zea mays
In short: (§1)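 Test chemicals in a non-phytotoxic solvent mixture with surfactant were sprayed preemergence onto planted seeds and postemergence onto plants 2 to 18 cm tall (1- to 4-leaf stage). After twelve to sixteen days in a greenhouse, injury was visually rated against untreated controls from 0 (no effect) to 10 (complete control).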

purple nutsedge = test: Test B pre/postemergence purple nutsedge; type: in vivo, Cyperus rotundus
In short: as §1

morningglory = test: Test B pre/postemergence morningglory; type: in vivo, Ipomoea hederacea
In short: as §1

wheat = test: Test B pre/postemergence wheat; type: in vivo, Triticum aestivum
In short: as §1

soybean = test: Test B pre/postemergence soybean; type: in vivo, Glycine max
In short: as §1

sugar beet = test: Test B pre/postemergence sugar beet; type: in vivo, Beta vulgaris
In short: as §1

crabgrass = test: Test B pre/postemergence crabgrass; type: in vivo, Digitaria sanguinalis
In short: as §1

wild oat = test: Test B pre/postemergence wild oat; type: in vivo, Avena fatua
In short: as §1

cocklebur = test: Test B pre/postemergence cocklebur; type: in vivo, Xanthium strumarium
In short: as §1

pigweed = test: Test B pre/postemergence pigweed; type: in vivo, Amaranthus retroflexus
In short: as §1

rape = test: Test B pre/postemergence rape; type: in vivo, Brassica napus
In short: as §1

giant foxtail = test: Test B pre/postemergence giant foxtail; type: in vivo, Setaria faberii
In short: as §1

surinam grass = test: Test B pre/postemergence surinam grass; type: in vivo, Brachiaria decumbens
In short: as §1

bedstraw = test: Test B pre/postemergence bedstraw; type: in vivo, Galium aparine
In short: as §1

blackgrass = test: Test B pre/postemergence blackgrass; type: in vivo, Alopecurus myosuroides
In short: as §1

velvetleaf = test: Test B pre/postemergence velvetleaf; type: in vivo, Abutilon theophrasti
In short: as §1

[1] = Postemergence, Rate 62 g/ha, scale 0 to 10, 0 is no effect, 10 is complete control
[2] = Postemergence, Rate 125 g/ha, scale of 0 to 10 where 0 is no effect and 10 is complete control
[3] = Preemergence, Rate 125 g/ha, scale of 0 to 10 where 0 is no effect and 10 is complete control
[4] = Preemergence, Rate 250 g/ha, scale 0 (no effect) to 10 (complete control)
[5] = Rate 62 g/ha, Preemergence, scale 0 to 10
[6] = Rate 250 g/ha, Postemergence, scale 0 to 10, 0 is no effect, 10 is complete control
[7] = Rate 500 g/ha, Postemergence, scale 0 to 10, 0 is no effect, 10 is complete control
[8] = Rate 500 g/ha, Preemergence, scale 0 to 10 (0 no effect, 10 complete control)

With `CC(C)N(C(=O)n1oc(=O)n(CCCCl)c1=O)c1ccc(Cl)cc1` [Compound 749] as the compound, how does the “Plant response rating, Corn” value (corn; [1]) read?
The value was 0.

What about the “Corn plant response rating” value (corn; [2]) of the same compound?
Its value is 0.

What about the “Plant response rating, Corn” value (corn; [3]) of the same compound?
The value was 0.

And the “Corn plant response rating” value (corn; [4])?
Its value is 0.

And the “Corn plant response rating” value (corn; [5])?
The value was 0.

What about the “Corn plant response rating” value (corn; [6]) of the same compound?
Its value is 0.

What about the “Corn plant response rating” value (corn; [7]) of the same compound?
The value was 1.

And the “Corn plant response rating” value (corn; [8])?
The value was 0.

And the “Plant response rating, Nutsedge” value (purple nutsedge; [1])?
The value was 0.

What about the “Nutsedge plant response rating” value (purple nutsedge; [2]) of the same compound?
The value was 0.

And the “Plant response rating, Nutsedge” value (purple nutsedge; [3])?
Its value is 0.

What about the “Nutsedge plant response rating” value (purple nutsedge; [4]) of the same compound?
Its value is 0.

What about the “Nutsedge plant response rating” value (purple nutsedge; [5]) of the same compound?
The value was 0.

What about the “Nutsedge plant response rating” value (purple nutsedge; [6]) of the same compound?
The value was 0.

And the “Nutsedge plant response rating” value (purple nutsedge; [7])?
The value was 0.

And the “Plant response rating, Morningglory” value (morningglory; [1])?
Its value is 2.

What about the “Morningglory plant response rating” value (morningglory; [2]) of the same compound?
Its value is 3.

What about the “Plant response rating, Morningglory” value (morningglory; [3]) of the same compound?
The value was 0.

What about the “Morningglory plant response rating” value (morningglory; [4]) of the same compound?
Its value is 0.

What about the “Morningglory plant response rating” value (morningglory; [5]) of the same compound?
The value was 0.

What about the “Morningglory plant response rating” value (morningglory; [6]) of the same compound?
Its value is 5.

And the “Morningglory plant response rating” value (morningglory; [7])?
The value was 5.

And the “Morningglory plant response rating” value (morningglory; [8])?
The value was 0.

What about the “Plant response rating, Wheat” value (wheat; [1]) of the same compound?
The value was 0.

And the “Wheat plant response rating” value (wheat; [2])?
The value was 0.

What about the “Plant response rating, Wheat” value (wheat; [3]) of the same compound?
Its value is 0.

What about the “Wheat plant response rating” value (wheat; [4]) of the same compound?
The value was 1.

What about the “Wheat plant response rating” value (wheat; [5]) of the same compound?
Its value is 0.

What about the “Wheat plant response rating” value (wheat; [6]) of the same compound?
The value was 0.

And the “Wheat plant response rating” value (wheat; [7])?
The value was 0.

And the “Wheat plant response rating” value (wheat; [8])?
The value was 1.

What about the “Plant response rating, Soybean” value (soybean; [1]) of the same compound?
The value was 3.

What about the “Soybean plant response rating” value (soybean; [2]) of the same compound?
The value was 4.

What about the “Plant response rating, Soybean” value (soybean; [3]) of the same compound?
The value was 0.

What about the “Soybean plant response rating” value (soybean; [4]) of the same compound?
Its value is 2.

And the “Soybean plant response rating” value (soybean; [5])?
Its value is 0.

What about the “Soybean plant response rating” value (soybean; [6]) of the same compound?
Its value is 5.

What about the “Soybean plant response rating” value (soybean; [7]) of the same compound?
Its value is 5.

What about the “Soybean plant response rating” value (soybean; [8]) of the same compound?
Its value is 3.

And the “Plant response rating, Sugarbeets” value (sugar beet; [1])?
Its value is 1.

What about the “Sugarbeets plant response rating” value (sugar beet; [2]) of the same compound?
Its value is 3.

What about the “Plant response rating, Sugarbeets” value (sugar beet; [3]) of the same compound?
The value was 2.

What about the “Sugarbeets plant response rating” value (sugar beet; [4]) of the same compound?
Its value is 6.

What about the “Sugarbeets plant response rating” value (sugar beet; [5]) of the same compound?
Its value is 0.

And the “Sugarbeets plant response rating” value (sugar beet; [6])?
The value was 4.

What about the “Sugarbeets plant response rating” value (sugar beet; [7]) of the same compound?
Its value is 4.

What about the “Sugarbeets plant response rating” value (sugar beet; [8]) of the same compound?
Its value is 7.

What about the “Plant response rating, Crabgrass” value (crabgrass; [1]) of the same compound?
The value was 4.

What about the “Crabgrass plant response rating” value (crabgrass; [2]) of the same compound?
The value was 8.

What about the “Plant response rating, Crabgrass” value (crabgrass; [3]) of the same compound?
The value was 10.

What about the “Crabgrass plant response rating” value (crabgrass; [4]) of the same compound?
The value was 10.

And the “Crabgrass plant response rating” value (crabgrass; [5])?
Its value is 9.

And the “Crabgrass plant response rating” value (crabgrass; [6])?
The value was 9.

What about the “Crabgrass plant response rating” value (crabgrass; [7]) of the same compound?
Its value is 9.

And the “Crabgrass plant response rating” value (crabgrass; [8])?
Its value is 10.

And the “Plant response rating, Wild oats” value (wild oat; [1])?
The value was 0.

What about the “Wild oats plant response rating” value (wild oat; [2]) of the same compound?
Its value is 0.

And the “Plant response rating, Wild oats” value (wild oat; [3])?
The value was 0.

And the “Wild oats plant response rating” value (wild oat; [4])?
Its value is 5.

And the “Wild oats plant response rating” value (wild oat; [5])?
Its value is 0.

What about the “Wild oats plant response rating” value (wild oat; [6]) of the same compound?
The value was 0.

What about the “Wild oats plant response rating” value (wild oat; [7]) of the same compound?
The value was 2.

What about the “Wild oats plant response rating” value (wild oat; [8]) of the same compound?
Its value is 8.

And the “Plant response rating, Cocklebur” value (cocklebur; [1])?
The value was 0.

What about the “Cocklebur plant response rating” value (cocklebur; [2]) of the same compound?
Its value is 2.

And the “Plant response rating, Cocklebur” value (cocklebur; [3])?
The value was 0.

What about the “Cocklebur plant response rating” value (cocklebur; [4]) of the same compound?
Its value is 0.

And the “Cocklebur plant response rating” value (cocklebur; [6])?
The value was 4.

And the “Cocklebur plant response rating” value (cocklebur; [7])?
Its value is 4.

And the “Cocklebur plant response rating” value (cocklebur; [8])?
The value was 0.

And the “Plant response rating, Redroot pigweed” value (pigweed; [1])?
Its value is 4.

And the “Redroot pigweed plant response rating” value (pigweed; [2])?
The value was 4.

What about the “Plant response rating, Redroot pigweed” value (pigweed; [3]) of the same compound?
Its value is 5.

What about the “Redroot pigweed plant response rating” value (pigweed; [4]) of the same compound?
Its value is 7.

What about the “Redroot pigweed plant response rating” value (pigweed; [5]) of the same compound?
Its value is 0.

What about the “Redroot pigweed plant response rating” value (pigweed; [6]) of the same compound?
Its value is 4.

And the “Redroot pigweed plant response rating” value (pigweed; [7])?
The value was 7.

And the “Redroot pigweed plant response rating” value (pigweed; [8])?
Its value is 9.

What about the “Plant response rating, Rape” value (rape; [1]) of the same compound?
The value was 2.

And the “Rape plant response rating” value (rape; [2])?
The value was 2.

And the “Plant response rating, Rape” value (rape; [3])?
The value was 0.

What about the “Rape plant response rating” value (rape; [4]) of the same compound?
Its value is 0.

And the “Rape plant response rating” value (rape; [5])?
Its value is 0.

What about the “Rape plant response rating” value (rape; [6]) of the same compound?
The value was 6.

What about the “Rape plant response rating” value (rape; [7]) of the same compound?
The value was 6.

And the “Rape plant response rating” value (rape; [8])?
Its value is 5.

And the “Plant response rating, Giant foxtail” value (giant foxtail; [1])?
Its value is 3.

What about the “Giant foxtail plant response rating” value (giant foxtail; [2]) of the same compound?
The value was 5.

And the “Plant response rating, Giant foxtail” value (giant foxtail; [3])?
Its value is 10.

And the “Giant foxtail plant response rating” value (giant foxtail; [4])?
Its value is 10.

And the “Giant foxtail plant response rating” value (giant foxtail; [5])?
The value was 9.

And the “Giant foxtail plant response rating” value (giant foxtail; [6])?
The value was 9.

What about the “Giant foxtail plant response rating” value (giant foxtail; [7]) of the same compound?
The value was 9.

And the “Giant foxtail plant response rating” value (giant foxtail; [8])?
Its value is 10.

And the “Plant response rating, B. signalgrass” value (surinam grass; [1])?
The value was 2.

What about the “B. signalgrass plant response rating” value (surinam grass; [2]) of the same compound?
Its value is 2.

And the “B. signalgrass plant response rating” value (surinam grass; Preemergence, Rate 62 g/ha, scale of 0 to 10 where 0 is no effect and 10 is complete control)?
The value was 0.

What about the “Plant response rating, B. signalgrass” value (surinam grass; [3]) of the same compound?
The value was 2.

What about the “B. signalgrass plant response rating” value (surinam grass; [4]) of the same compound?
The value was 8.

What about the “B. signalgrass plant response rating” value (surinam grass; [6]) of the same compound?
Its value is 3.

What about the “B. signalgrass plant response rating” value (surinam grass; [7]) of the same compound?
The value was 3.

What about the “B. signalgrass plant response rating” value (surinam grass; [8]) of the same compound?
Its value is 10.

What about the “Plant response rating, Bedstraw” value (bedstraw; [1]) of the same compound?
The value was 3.

What about the “Plant response rating, Bedstraw” value (bedstraw; [3]) of the same compound?
The value was 0.

What about the “Bedstraw plant response rating” value (bedstraw; [4]) of the same compound?
The value was 0.

And the “Bedstraw plant response rating” value (bedstraw; [5])?
The value was 0.

And the “Bedstraw plant response rating” value (bedstraw; [6])?
The value was 3.

What about the “Bedstraw plant response rating” value (bedstraw; [8]) of the same compound?
Its value is 4.

And the “Plant response rating, Blackgrass” value (blackgrass; [1])?
The value was 5.

And the “Blackgrass plant response rating” value (blackgrass; [2])?
Its value is 5.

And the “Plant response rating, Blackgrass” value (blackgrass; [3])?
The value was 2.

And the “Blackgrass plant response rating” value (blackgrass; [4])?
The value was 6.

And the “Blackgrass plant response rating” value (blackgrass; [5])?
The value was 0.

What about the “Blackgrass plant response rating” value (blackgrass; [6]) of the same compound?
The value was 6.

What about the “Blackgrass plant response rating” value (blackgrass; [7]) of the same compound?
Its value is 6.

And the “Blackgrass plant response rating” value (blackgrass; [8])?
The value was 9.

And the “Plant response rating, Velvetleaf” value (velvetleaf; [1])?
Its value is 0.

What about the “Velvetleaf plant response rating” value (velvetleaf; [2]) of the same compound?
Its value is 3.

What about the “Plant response rating, Velvetleaf” value (velvetleaf; [3]) of the same compound?
The value was 0.

And the “Velvetleaf plant response rating” value (velvetleaf; [4])?
Its value is 0.

And the “Velvetleaf plant response rating” value (velvetleaf; [5])?
Its value is 0.

And the “Velvetleaf plant response rating” value (velvetleaf; [6])?
The value was 3.

What about the “Velvetleaf plant response rating” value (velvetleaf; [7]) of the same compound?
The value was 3.

And the “Velvetleaf plant response rating” value (velvetleaf; [8])?
The value was 2.
